Tests used:
Assay type in all cases: biochemical
MMP-1 = target: T1, MMP-1 (Homo sapiens, UniProt P03956); experiment: MMP-1 inhibition (thiopeptide or fluorescent peptide substrate assay); conditions: for inhibition at 1 µM: read-out: MMP-1 % inhibition, concentration 1 µM
T1 sequence (P03956 100-469): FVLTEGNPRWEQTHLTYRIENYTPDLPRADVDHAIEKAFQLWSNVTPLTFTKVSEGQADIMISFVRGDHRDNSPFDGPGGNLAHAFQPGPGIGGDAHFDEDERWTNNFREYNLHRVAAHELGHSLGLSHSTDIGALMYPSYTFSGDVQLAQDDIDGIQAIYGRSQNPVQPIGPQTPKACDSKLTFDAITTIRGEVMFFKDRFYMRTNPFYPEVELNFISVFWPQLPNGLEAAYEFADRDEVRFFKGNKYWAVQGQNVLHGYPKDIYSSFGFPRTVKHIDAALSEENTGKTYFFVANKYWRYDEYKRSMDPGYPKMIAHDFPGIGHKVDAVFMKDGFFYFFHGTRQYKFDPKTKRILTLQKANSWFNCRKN
Experimental: (§1) These assays are based on the cleavage of a thiopeptide substrates such as Ac-Pro-Leu-Gly(2mercapto-4 methyl-pentanoyl)-Leu-Gly-OEt by the matrix metalloproteinases MMP-1, MMP-13 (collagenases) or MMP-9 (gelatinase), which results in the release of a substrate product that reacts colorimetrically with DTNB (5,5'-dithiobis(2-nitro-benzoic acid)). The enzyme activity is measured by the rate of the color increase. The thiopeptide substrate is made up fresh as a 20 mM stock in 100% DMSO and the DTNB is dissolved in 100% DMSO as a 100 mM stock and stored in the dark at room temperature. Both the substrate and DTNB are diluted together to 1 mM with substrate buffer (50 mM HEPES pH 7.5, 5 mM CaCl2) before use. The stock of enzyme is diluted with assay buffer (50 mM HEPES, pH 7.5, 5 mM CaCl2, 0.02% Brij) to the desired final concentration.
(§2) Alternatively, a fluorescent peptide substrate is used. In this assay, the peptide substrate contains a fluorescent group and a quenching group. Upon cleavage of the substrate by an MMP, the fluorescence that is generated is quantitated on the fluorescence plate reader. The assay is run in HCBC assay buffer (50mM HEPES, pH 7.0, 5 mM Ca^+2, 0.02% Brij, 0.5% Cysteine), with human recombinant MMP-1, MMP-9, or MMP-13. The substrate is dissolved in methanol and stored frozen in 1 mM aliquots. For the assay, substrate and enzymes are diluted in HCBC buffer to the desired concentrations. Compounds are added to the 96 well plate containing enzyme and the reaction is started by the addition of substrate. The reaction is read (excitation 340 nm, emission 444 nm) for 10 min. and the increase in fluorescence over time is plotted as a linear line.
(§3) For either the thiopeptide or fluorescent peptide assays, the slope of the line is calculated and represents the reaction rate. The linearity of the reaction rate is confirmed (r^2 >0.85). The mean (x±sem) of the control rate is calculated and compared for statistical significance (p<0.05) with drug-treated rates using Dunnett's multiple comparison test.

TACE = target: T2, TACE (Homo sapiens, UniProt P78536); experiment: TACE inhibition (fluorescent peptidyl substrate assay)
T2 construct: purchased Immunex
T2 sequence (P78536 215-824): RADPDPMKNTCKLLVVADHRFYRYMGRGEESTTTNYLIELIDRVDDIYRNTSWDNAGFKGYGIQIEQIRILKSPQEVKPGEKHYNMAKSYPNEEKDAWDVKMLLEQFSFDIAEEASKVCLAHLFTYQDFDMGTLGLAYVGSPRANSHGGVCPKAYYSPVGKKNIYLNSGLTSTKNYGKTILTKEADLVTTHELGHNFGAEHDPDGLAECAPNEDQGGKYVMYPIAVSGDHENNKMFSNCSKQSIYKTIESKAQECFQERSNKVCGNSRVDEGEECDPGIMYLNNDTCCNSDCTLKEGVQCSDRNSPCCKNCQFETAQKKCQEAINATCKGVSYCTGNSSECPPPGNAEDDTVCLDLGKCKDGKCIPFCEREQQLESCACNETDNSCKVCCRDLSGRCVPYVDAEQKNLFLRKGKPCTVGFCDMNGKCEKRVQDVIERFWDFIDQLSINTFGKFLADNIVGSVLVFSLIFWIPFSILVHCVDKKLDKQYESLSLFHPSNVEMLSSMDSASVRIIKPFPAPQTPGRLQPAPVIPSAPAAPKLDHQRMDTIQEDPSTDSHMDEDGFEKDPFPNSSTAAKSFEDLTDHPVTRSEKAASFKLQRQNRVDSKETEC
Experimental: Using 96-well black microtiter plates, each well receives a solution composed of 10 µL TACE (Immunex, final concentration 1µg/mL), 70µL Tris buffer, pH 7.4 containing 10% glycerol (final concentration 10 mM), and 10 µL of test compound solution in DMSO (final concentration 1µM, DMSO concentration <1%) and incubated for 10 minutes at room temperature.
The reaction is read (excitation 340 nm, emission 420 nm) for 10 min. and the increase in fluorescence over time is plotted as a linear line. The slope of the line is calculated and represents the reaction rate.

MMP-9 = MMP-9 (Homo sapiens, UniProt P14780); experiment: MMP-9 inhibition (thiopeptide or fluorescent peptide substrate assay); conditions: for inhibition at 10 µM: concentration 10 µM
Chain of MMP-9 (P14780 94-707): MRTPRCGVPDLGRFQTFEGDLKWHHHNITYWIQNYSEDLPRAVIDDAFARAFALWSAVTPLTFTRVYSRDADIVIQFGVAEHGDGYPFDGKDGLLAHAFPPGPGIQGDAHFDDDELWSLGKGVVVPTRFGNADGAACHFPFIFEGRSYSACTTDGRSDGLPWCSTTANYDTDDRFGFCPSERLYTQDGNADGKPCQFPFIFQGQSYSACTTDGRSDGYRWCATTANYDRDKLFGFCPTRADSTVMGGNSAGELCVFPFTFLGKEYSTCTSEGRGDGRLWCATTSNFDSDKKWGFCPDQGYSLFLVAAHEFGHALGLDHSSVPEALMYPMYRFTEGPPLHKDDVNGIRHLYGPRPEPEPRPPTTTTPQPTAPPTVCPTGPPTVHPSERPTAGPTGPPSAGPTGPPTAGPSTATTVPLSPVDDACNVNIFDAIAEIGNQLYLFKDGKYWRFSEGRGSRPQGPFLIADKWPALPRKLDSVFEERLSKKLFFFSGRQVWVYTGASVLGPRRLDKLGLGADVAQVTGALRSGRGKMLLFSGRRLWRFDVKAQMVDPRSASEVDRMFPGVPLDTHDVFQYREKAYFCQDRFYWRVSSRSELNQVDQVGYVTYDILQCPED
Experimental: as §1, §2, §3

MMP-13 = MMP-13 (Homo sapiens, UniProt P45452); experiment: MMP-13 inhibition (thiopeptide or fluorescent peptide substrate assay)
Experimental: Alternatively, a fluorescent peptide substrate is used. In this assay, the peptide substrate contains a fluorescent group and a quenching group. Upon cleavage of the substrate by an MMP, the fluorescence that is generated is quantitated on the fluorescence plate reader. […] The substrate is dissolved in methanol and stored frozen in 1 mM aliquots. For the assay, substrate and enzymes are diluted in HCBC buffer to the desired concentrations. Compounds are added to the 96 well plate containing enzyme and the reaction is started by the addition of substrate.

Compound: COc1ccc(S(=O)(=O)N(Cc2cccnc2)c2c(C(=O)NO)csc2Br)cc1 [Example 26, 5-Bromo-4-[(4-methoxy-benzenesulfonyl)-pyridin-3-ylmethyl-amino]-thiophene-3-carboxylic acid hydroxyamide]
- IC50 (MMP-1): 1000 nM
- inhibition at 1 µM (TACE; concentration 1 µM): 42%
- IC50 (MMP-9): 70 nM

Compound: COc1ccc(S(=O)(=O)N(Cc2ccccc2)c2ccsc2C(=O)NO)cc1 [Example 13, 3-[Benzyl-(4-methoxy-benzenesulfonyl)-amino]-thiophene-2-carboxylic acid hydroxyamide]
- inhibition at 1 µM (MMP-1): 19.3%
- inhibition at 10 µM (MMP-9; read-out: MMP-9 % inhibition): 57.3%

Compound: COc1ccc(S(=O)(=O)N(Cc2ccccc2)c2cscc2C(=O)NO)cc1 [Example 14, 4-[Benzyl-(4-methoxy-benzenesulfonyl)-amino]-thiophene-3-carboxylic acid hydroxyamide]
- inhibition at 1 µM (MMP-1): 40%
- inhibition at 10 µM (MMP-9; read-out: MMP-9 % inhibition): 66.8%

Compound: COc1ccc(S(=O)(=O)N(Cc2ccccc2)c2c(C(=O)NO)cc(OC)nc2OC)cc1 [Example 33, 3-[Benzyl-(4-methoxy-benzenesulfonyl)-amino]-N-hydroxy-2,6-dimethoxyisonicotinamide]
- IC50 (MMP-13): 47 nM
- IC50 (TACE): 294 nM
- IC50 (MMP-9): 15 nM

Compound: C#Cc1scc(C(=O)NO)c1N(Cc1ccccc1)S(=O)(=O)c1ccc(OC)cc1 [Example 23, 4-[Benzyl-(4-methoxy-benzenesulfonyl)-amino]-5-ethynyl-thiophene-3-carboxylic acid hydroxyamide]
- inhibition at 300 µM (MMP-13; read-out: MMP-13 % inhibition): 35%
- inhibition at 1 µM (MMP-1): 48.9%
- inhibition at 300 µM (MMP-9; read-out: MMP-9 % inhibition, concentration 300 µM): 38.4%

Compound: COc1ccc(S(=O)(=O)N(Cc2ccccc2)c2c(C(=O)NO)cnn2C)cc1 [Example 15, 5-[Benzyl-(4-methoxy-benzenesulfonyl)-amino]-1-methyl-1H-pyrazole-4-carboxylic acid hydroxyamide]
- inhibition at 1 µM (MMP-1): 22.1%
- IC50 (MMP-9): 930 nM

Compound: COc1ccc(S(=O)(=O)N(Cc2ccccc2)c2c(C(=O)NO)csc2Br)cc1 [Example 20, 4-[Benzyl-(4-methoxy-benzenesulfonyl)-amino]-5-bromo-thiophene-3-carboxylic acid hydroxyamide]
- IC50 (MMP-13): 472 nM
- IC50 (MMP-1): 638 nM
- IC50 (MMP-9): 236 nM

Compound: COc1ccc(S(=O)(=O)N(Cc2ccccc2)c2c(C)csc2C(=O)NO)cc1 [Example 16, 3-[Benzyl-(4-methoxy-benzenesulfonyl)-amino]-4-methyl-thiophene-2-carboxylic acid hydroxyamide]
- IC50 (MMP-9): 104 nM
